In ChEMBL document CHEMBL5727633, “Therapeutic compounds” (2020):
pIC50: −log10 of the molar value.

Key:
CREB-binding protein = CREB-binding protein (Homo sapiens, UniProt Q92793); assay: In Vitro CBP Inhibition: The CBP-inhibitory activity of the compounds described herein was determined by calculating the IC50. More specifically, CBP inhibitor activity was assayed as follows: CBP was cloned and expressed in E. coli as His-tag protein and purified by Nickel affinity and gel-filtration chromatography. […] CBP binding and inhibition is assessed by monitoring the interaction of biotinylated H4-tetraacetyl peptide (AnaSpec, H4K5/8/12/16(Ac), biotin-labeled) with the target using the AlphaScreen technology (Perkin Elmer). In a 384-well ProxiPlate CBP (50 nM final) was combined with peptide (20 nM final) in 50 mM HEPES (pH 7.3), 10 mM NaCl, 0.25 mM TCEP, 0.1% (w/v) BSA, and 0.005% (w/v) Brij-35 either in the presence of DMSO (final 0.4% DMSO) or compound dilution series in DMSO. After 20 min incubation at room temp, Alpha-streptavidin donor beads and Nickel Chelate acceptor beads were added to a final concentration of 5 μg/mL.
[1] = molecular target: Bromodomain-containing protein 4 (Homo sapiens, UniProt O60885); assay: In Vitro Enzyme Inhibition Assay-BRD4 Inhibition: Inhibition of BRD4 was determined as described previously. See, e.g., U.S. Pat. No. 9,034,900.

Chain of CREB-binding protein (Q92793 whole entry): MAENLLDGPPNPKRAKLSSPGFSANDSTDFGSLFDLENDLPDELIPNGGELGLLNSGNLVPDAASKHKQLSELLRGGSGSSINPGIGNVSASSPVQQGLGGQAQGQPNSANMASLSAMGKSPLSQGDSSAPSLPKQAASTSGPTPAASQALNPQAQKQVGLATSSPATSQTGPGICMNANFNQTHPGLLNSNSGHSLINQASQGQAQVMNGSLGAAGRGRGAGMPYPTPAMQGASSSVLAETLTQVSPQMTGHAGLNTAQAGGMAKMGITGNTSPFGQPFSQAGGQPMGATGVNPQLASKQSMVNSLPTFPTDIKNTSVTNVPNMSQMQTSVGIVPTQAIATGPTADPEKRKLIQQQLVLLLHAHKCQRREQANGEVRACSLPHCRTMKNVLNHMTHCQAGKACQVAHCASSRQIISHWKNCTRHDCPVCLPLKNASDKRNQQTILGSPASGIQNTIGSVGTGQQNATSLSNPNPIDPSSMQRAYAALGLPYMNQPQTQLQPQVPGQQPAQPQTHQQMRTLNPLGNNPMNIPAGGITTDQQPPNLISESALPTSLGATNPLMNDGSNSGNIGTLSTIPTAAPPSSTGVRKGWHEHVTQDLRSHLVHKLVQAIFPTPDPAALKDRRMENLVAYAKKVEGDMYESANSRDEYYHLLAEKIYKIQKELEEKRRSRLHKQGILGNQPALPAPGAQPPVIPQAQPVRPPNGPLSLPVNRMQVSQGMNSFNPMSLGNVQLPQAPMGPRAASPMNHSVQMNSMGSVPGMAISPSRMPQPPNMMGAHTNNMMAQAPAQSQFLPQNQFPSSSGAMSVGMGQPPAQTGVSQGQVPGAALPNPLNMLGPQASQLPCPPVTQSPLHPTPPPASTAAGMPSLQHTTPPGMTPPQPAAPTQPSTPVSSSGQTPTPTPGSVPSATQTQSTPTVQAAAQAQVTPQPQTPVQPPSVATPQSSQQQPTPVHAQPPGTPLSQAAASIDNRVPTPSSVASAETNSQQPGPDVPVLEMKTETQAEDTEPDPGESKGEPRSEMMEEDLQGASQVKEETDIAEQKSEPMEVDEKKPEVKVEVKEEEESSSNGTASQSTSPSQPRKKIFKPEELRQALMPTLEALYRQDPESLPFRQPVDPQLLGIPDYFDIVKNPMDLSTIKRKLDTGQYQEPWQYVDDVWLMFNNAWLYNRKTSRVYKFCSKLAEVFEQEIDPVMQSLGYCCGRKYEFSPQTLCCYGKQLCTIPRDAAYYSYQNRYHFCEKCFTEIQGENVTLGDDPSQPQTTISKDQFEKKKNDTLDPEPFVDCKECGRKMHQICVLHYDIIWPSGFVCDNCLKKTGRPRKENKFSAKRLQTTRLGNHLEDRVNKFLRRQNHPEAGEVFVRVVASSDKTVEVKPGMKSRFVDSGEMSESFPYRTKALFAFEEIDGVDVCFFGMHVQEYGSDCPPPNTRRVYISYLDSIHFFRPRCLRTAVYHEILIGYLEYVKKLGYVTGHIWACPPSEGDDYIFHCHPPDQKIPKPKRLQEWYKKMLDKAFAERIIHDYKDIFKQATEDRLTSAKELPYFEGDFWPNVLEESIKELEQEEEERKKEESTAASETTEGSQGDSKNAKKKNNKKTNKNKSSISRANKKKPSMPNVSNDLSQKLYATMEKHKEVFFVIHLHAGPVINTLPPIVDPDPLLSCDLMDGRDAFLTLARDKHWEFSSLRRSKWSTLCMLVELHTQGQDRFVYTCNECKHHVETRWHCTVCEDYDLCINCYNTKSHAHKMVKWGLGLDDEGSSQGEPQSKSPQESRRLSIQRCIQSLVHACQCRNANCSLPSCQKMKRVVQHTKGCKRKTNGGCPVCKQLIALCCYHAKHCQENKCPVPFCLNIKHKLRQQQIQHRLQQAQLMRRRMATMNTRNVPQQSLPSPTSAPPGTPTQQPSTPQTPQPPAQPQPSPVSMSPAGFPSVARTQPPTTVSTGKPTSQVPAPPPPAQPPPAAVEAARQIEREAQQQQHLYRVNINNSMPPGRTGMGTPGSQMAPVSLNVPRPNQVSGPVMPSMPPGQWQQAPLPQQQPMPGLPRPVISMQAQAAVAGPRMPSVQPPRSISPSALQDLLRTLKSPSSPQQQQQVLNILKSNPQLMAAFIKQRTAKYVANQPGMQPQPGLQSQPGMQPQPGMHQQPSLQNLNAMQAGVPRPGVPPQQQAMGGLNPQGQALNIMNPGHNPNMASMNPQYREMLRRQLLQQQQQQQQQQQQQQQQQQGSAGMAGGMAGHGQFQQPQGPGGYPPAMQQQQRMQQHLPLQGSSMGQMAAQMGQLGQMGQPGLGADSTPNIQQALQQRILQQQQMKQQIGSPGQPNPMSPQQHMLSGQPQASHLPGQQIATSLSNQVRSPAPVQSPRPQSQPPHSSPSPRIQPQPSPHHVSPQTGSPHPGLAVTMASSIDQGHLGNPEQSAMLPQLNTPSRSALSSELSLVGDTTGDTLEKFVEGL

Structure (SMILES)	pIC50 (CREB-binding protein)	pIC50 [1]
COc1ccc(-c2cc(=O)n(C)cc2-c2cnn(-c3ccccc3C(=O)NC#N)c2)cn1	> 6.30	–
Cc1cc(-c2cnn(C(c3ccccc3)C3CC3)c2)cn(C)c1=O (configuration not stated)	> 6.30	–
Cn1cc(-c2cnn(Cc3ccccc3)c2)c(-c2cnn(CC(=O)O)c2)cc1=O	> 6.30	–
Cn1cc(-c2cnn(CC3CC3)c2)c(-c2ccc(C(F)(F)F)cc2)cc1=O	> 6.30	–
Cn1cc(-c2cnn(-c3ccccc3C(=O)O)c2)c(-c2ccc(Cl)cc2)cc1=O	> 6.30	–
Cn1cc(-c2cnn(CC3CCCCC3)c2)c(-c2ccccc2)cc1=O	> 6.30	–
COc1ccc(C#N)c(-n2cc(-c3cn(C)c(=O)cc3-c3ccc(Cl)cc3)cn2)c1	> 6.30	–
CNC(=O)Cn1cc(-c2cn(C)c(=O)cc2-c2ccccc2)cn1	> 6.30	–
CNC(=O)c1ccc(-c2cc(=O)n(C)cc2-c2cnn(CC3CC3)c2)cc1	> 6.30	–
COc1ccc(-c2cc(=O)n(C)cc2-c2cnn(-c3ccccc3C(=O)O)c2)cc1	> 6.30	–
Cn1cc(-c2cnn(Cc3ccccc3)c2)c(-c2ccc(Cl)cc2)cc1=O	> 6.30	–
COc1ccccc1-c1cc(=O)n(C)cc1-c1cnn(Cc2ccccc2)c1	< 5.30	–
Cn1cc(COc2cc(=O)n(C)cc2-c2cnn(-c3ccccc3Cl)c2)cn1	> 6.30	–

The remaining lines, values ahead:

pIC50 (CREB-binding protein)	pIC50 [1]	Structure (SMILES)
> 6.30	–	CCOc1cc(=O)n(C)cc1-c1cnn(C(C)c2cccc(-c3cnn(C)c3)c2)c1 (configuration not stated)
> 6.30	–	Cn1ccc(-c2cc(=O)n(C)cc2-c2cnn(-c3cccc(F)c3C#N)c2)cc1=O
> 6.30	–	Cn1cc(-c2cnn(-c3ccccc3-c3nnn[nH]3)c2)c(-c2ccc(F)cc2)cc1=O
> 6.30	–	Cn1cc(-c2cnn(Cc3ccccc3)c2)c(-c2cccc(Cl)c2)cc1=O
> 6.30	–	COc1ccc(-c2cc(=O)n(C)cc2-c2cnn(-c3ccccc3C#N)c2)cc1
> 6.30	–	COc1cc(-c2cc(=O)n(C)cc2-c2cnn(-c3ccccc3C(=O)NC#N)c2)ccn1
> 6.30	–	COc1ccc(C(=O)O)c(-n2cc(-c3cn(C)c(=O)cc3-c3ccc(Cl)cc3)cn2)c1
> 6.30	< 5.30	Cn1cc(-c2cnn(CC3CC3)c2)c(-c2ccc(C(=O)O)cc2)cc1=O
